Active and inactive are the calls of the source. The calls are words filed in the database; no cut-off is given here.
Key:
HEK293 [1] = test: Selectivity index, ratio of IC50 for human HDAC3 expressed in HEK293/T17 cells (unknown origin) to human HDAC6 expressed in HEK293/T17 cells; type: cell-based
SM1 [2] = test: Cytotoxicity in mouse SM1 cells assessed as reduction in cell viability up to 25 uM; type: functional, cell-based; conditions: dose microM <=25
[3] = Half life in rat liver microsome at 10 uM by LC-MS/MS analysis; type: ADME; conditions: liver microsomes
[4] = Protein binding in human plasma at 10 uM incubated for 1 hr by LC-MS/MS analysis; type: ADME, cell-free; conditions: read-out: PPB (converted)
HEK293 [5] = test: Selectivity index, ratio of IC50 for human HDAC4 expressed in HEK293/T17 cells (unknown origin) to human HDAC6 expressed in HEK293/T17 cells; type: cell-based
[6] = Half life in SGF by LC-MS/MS analysis; type: ADME
Histone deacetylase 11 = target: T1, Histone deacetylase 11 (Homo sapiens, UniProt Q96DB2); test: Inhibition of human HDAC11 expressed in HEK293/T17 cells pre-incubated for 10 mins before […] addition and measured after 30 mins by fluorescence-based assay; type: cell-based
T1 sequence (Q96DB2 whole entry): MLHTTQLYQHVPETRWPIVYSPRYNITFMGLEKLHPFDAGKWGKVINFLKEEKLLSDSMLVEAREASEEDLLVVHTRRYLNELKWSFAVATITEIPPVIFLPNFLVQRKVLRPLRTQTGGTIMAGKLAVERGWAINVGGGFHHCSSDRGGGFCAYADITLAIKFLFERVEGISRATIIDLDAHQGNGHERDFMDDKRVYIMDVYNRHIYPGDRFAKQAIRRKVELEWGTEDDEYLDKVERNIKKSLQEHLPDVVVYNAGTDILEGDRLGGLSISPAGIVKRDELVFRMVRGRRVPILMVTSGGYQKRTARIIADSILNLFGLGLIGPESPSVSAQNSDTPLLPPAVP

HEK293 [7] = test: Selectivity index, ratio of IC50 for human HDAC2 expressed in HEK293/T17 cells (unknown origin) to human HDAC6 expressed in HEK293/T17 cells; type: cell-based
HEK293 [8] = test: Selectivity index, ratio of IC50 for human HDAC5 expressed in HEK293/T17 cells (unknown origin) to human HDAC6 expressed in HEK293/T17 cells; type: cell-based
[9] = Half life in human plasma at 10 uM by LC-MS/MS analysis; type: ADME, cell-free
HEK293 [10] = test: Selectivity index, ratio of IC50 for human HDAC8 expressed in HEK293/T17 cells (unknown origin) to human HDAC6 expressed in HEK293/T17 cells; type: cell-based
HEK293 [11] = test: Selectivity index, ratio of IC50 for human HDAC9 expressed in HEK293/T17 cells (unknown origin) to human HDAC6 expressed in HEK293/T17 cells; type: cell-based
[12] = target: T2, Protein deacetylase HDAC6 (Homo sapiens) (UniProt Q9UBN7); test: Inhibition of human HDAC6 in human WM164 cells increase in acetylated alpha-tubulin levels at 0.1 to 10 uM by immunoblot analysis; type: cell-based; conditions: dose microM 0.1-10
T2 sequence (whole entry): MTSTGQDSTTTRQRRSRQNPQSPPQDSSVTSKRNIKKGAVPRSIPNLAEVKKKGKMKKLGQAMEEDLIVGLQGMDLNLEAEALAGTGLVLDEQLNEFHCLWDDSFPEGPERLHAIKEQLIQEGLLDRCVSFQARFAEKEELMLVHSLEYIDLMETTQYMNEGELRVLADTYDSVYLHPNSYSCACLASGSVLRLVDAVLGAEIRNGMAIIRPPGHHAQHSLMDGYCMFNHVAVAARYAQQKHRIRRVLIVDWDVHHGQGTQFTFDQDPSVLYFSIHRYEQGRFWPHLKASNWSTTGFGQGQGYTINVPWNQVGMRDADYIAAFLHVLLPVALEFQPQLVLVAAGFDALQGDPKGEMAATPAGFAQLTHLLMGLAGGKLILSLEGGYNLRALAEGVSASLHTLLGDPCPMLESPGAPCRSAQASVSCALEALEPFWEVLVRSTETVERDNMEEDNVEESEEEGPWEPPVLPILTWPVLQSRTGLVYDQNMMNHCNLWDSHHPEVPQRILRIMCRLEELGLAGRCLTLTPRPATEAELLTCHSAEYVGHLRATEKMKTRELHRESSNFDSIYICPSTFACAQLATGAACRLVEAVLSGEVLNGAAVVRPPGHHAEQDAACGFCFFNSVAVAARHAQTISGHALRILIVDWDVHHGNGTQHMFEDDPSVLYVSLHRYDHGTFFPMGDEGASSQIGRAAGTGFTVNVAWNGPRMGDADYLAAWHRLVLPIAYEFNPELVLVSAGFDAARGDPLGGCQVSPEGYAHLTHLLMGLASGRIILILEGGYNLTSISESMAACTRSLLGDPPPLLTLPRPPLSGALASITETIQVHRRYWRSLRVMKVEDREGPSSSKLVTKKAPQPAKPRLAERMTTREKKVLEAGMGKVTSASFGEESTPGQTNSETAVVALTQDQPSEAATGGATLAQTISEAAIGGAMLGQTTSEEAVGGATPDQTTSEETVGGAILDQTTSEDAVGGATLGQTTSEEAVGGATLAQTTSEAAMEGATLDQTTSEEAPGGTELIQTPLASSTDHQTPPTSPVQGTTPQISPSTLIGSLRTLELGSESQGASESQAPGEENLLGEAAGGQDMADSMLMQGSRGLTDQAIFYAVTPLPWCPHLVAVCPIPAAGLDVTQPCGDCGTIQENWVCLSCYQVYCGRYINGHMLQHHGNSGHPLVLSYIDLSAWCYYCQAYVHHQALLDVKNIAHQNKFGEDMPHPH

HEK293 [13] = test: Selectivity index, ratio of IC50 for human HDAC6 expressed in HEK293/T17 cells (unknown origin) to human HDAC6 expressed in HEK293/T17 cells; type: cell-based
HEK293 [14] = test: Selectivity index, ratio of IC50 for human HDAC7 expressed in HEK293/T17 cells (unknown origin) to human HDAC6 expressed in HEK293/T17 cells; type: cell-based
[15] = target: Histone deacetylase (Homo sapiens) (UniProt Q13547+O15379+Q9UBN7+Q92769+Q9UQL6+Q8WUI4+Q9BY41+Q96DB2+P56524+Q9UKV0+Q969S8); test: Inhibition of human HDAC in human WM164 cells increase in acetylated histone H3 levels at 0.1 to 10 uM by immunoblot analysis; type: cell-based; conditions: dose microM 0.1-10
HEK293 [16] = test: Selectivity index, ratio of IC50 for human HDAC1 expressed in HEK293/T17 cells (unknown origin) to human HDAC6 expressed in HEK293/T17 cells; type: cell-based
[17] = Half life in PBS by LC-MS/MS analysis; type: physicochemical
[18] = target: T2, Protein deacetylase HDAC6 (Homo sapiens); test: Inhibition of human HDAC6 in human WM164 cells assessed as decrease in STAT3 Y705 phosphorylation at 5 uM pre-incubated before IL6 stimulation for 20 mins by immunoblot analysis; type: cell-based
SM1 [19] = test: Potentiation of antitumor immune response in C57BL/6 mouse harboring mouse SM1 cells assessed as decrease in tumor burden at 25 mg/kg, ip dosed 5 days per week before starting 15 mg/kg, ip anti-PD1 immune checkpoint blockade therapy measured on day 14; type: functional, organism-based; conditions: time 14.0 day
SM1 [20] = test: Potentiation of antitumor immune response in C57BL/6 mouse harboring mouse SM1 cells assessed as decrease in tumor burden at 25 mg/kg, ip dosed 5 days per week before starting 15 mg/kg, ip anti-PD1 immune checkpoint blockade therapy measured on day 20; type: functional, organism-based; conditions: time 20.0 day
Homo sapiens = species: Homo sapiens; test: Selectivity index, ratio of IC50 for HDAC1 (unknown origin) to HDAC6 (unknown origin)
[21] = target: T3, Protein deacetylase HDAC6 (Homo sapiens, UniProt Q9UBN7)
T3 sequence (Q9UBN7 whole entry): T2 sequence (whole entry)
Description: Inhibition of HDAC6 (unknown origin)

Histone deacetylase 1 = Histone deacetylase 1 (Homo sapiens, UniProt Q13547)
Sequence of Histone deacetylase 1 (Q13547 whole entry): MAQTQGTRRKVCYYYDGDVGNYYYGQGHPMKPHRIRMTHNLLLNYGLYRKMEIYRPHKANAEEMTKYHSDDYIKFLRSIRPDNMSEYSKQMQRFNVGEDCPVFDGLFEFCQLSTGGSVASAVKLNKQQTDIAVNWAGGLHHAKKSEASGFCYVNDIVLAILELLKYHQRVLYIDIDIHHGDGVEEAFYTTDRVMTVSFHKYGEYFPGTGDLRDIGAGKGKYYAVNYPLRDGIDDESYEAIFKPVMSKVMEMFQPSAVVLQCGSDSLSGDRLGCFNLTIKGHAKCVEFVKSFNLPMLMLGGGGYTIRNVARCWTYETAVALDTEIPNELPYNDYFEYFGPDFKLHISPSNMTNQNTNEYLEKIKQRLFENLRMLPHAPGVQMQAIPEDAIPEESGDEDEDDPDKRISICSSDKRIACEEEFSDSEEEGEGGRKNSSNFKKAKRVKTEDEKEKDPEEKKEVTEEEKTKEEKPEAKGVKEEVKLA
Description: Inhibition of HDAC1 (unknown origin)

SMILES | Ratio IC50 (HEK293 [1]) | half-life at 10 µM [3] | fraction unbound at 1 h, 10 µM [4] | Ratio IC50 (HEK293 [5]) | half-life [6] | IC50 (Histone deacetylase 11) | Ratio IC50 (HEK293 [7]) | Ratio IC50 (HEK293 [8]) | half-life at 10 µM [9] | Ratio IC50 (HEK293 [10]) | Ratio IC50 (HEK293 [11]) | inhibition [12] | Ratio IC50 (HEK293 [13]) | Ratio IC50 (HEK293 [14]) | inhibition [15] | Ratio IC50 (HEK293 [16]) | half-life [17] | Ratio IC50 (Homo sapiens) | IC50 [21] | IC50 (Histone deacetylase 1) | also measured
O=C(NO)c1ccc(CN(CCCCO)C(=O)Nc2ccccc2)cc1 | 1160 | 3.3 h | 0.52 | 27900 | > 5 h | > 50000 nM | 536 | 18300 | > 5 h | 956 | 59500 | Dose-dependent effect | 1 | 3870 | Active | 296 | > 24 h |  |  |  | Activity (SM1 [2]): inactive
CCCCN(Cc1ccc(C(=O)NO)cc1)C(=O)Nc1ccccc1 [NEXTURASTAT A] |  | 7.05 h | 0.11 |  | > 5 h |  |  |  | > 5 h |  |  | Dose-dependent effect |  |  | Active |  | > 24 h |  |  |  | inhibition [18]: Active; TGI (SM1 [19]): Active; Activity (SM1 [20]): Active
C[C@H](NC(=O)[C@H](CC(=O)NC(C)(C)C)NC(=O)c1ccc(C(=O)NO)cc1)C(=O)NCc1ccccc1 |  |  |  |  |  |  |  |  |  |  |  |  |  |  |  |  |  | 26 | 270 nM | 6900 nM | 
O=C(NO)c1cnc(NC2(c3ccccc3)CCC(F)(F)CC2)nc1 |  |  |  |  |  |  |  |  |  |  |  |  |  |  |  |  |  | 260 |  |  | 
CCCCN(Cc1ccc(C(=O)NO)cc1)C(=O)Nc1ccc(CN)cc1 | 492 | 2.88 h | 0.53 | 25700 | > 5 h | > 50000 nM | 312 | 11200 | > 5 h | 682 | 19200 | Dose-dependent effect | 1 | 10000 | Active | 89 | > 24 h |  |  |  | 
O=C(NO)c1ccc(CN(CCCO)C(=O)Cc2ccccc2)cc1 |  |  |  |  |  |  |  |  |  |  |  |  |  |  |  |  |  | 36 | 31 nM | 1130 nM | 

Reference: ChEMBL document CHEMBL4725372, “Rational Design of Suprastat: A Novel Selective Histone Deacetylase 6 Inhibitor with the Ability to Potentiate Immunotherapy in Melanoma Models” (J Med Chem, 2020)
